Test results: patent US11639353B2, “Cyclobutanes- and azetidine-containing mono and spirocyclic compounds as αV integrin inhibitors” (BRISTOL-MYERS SQUIBB COMPANY, priority 2016, dated 2023)

Legend:
Conditions in all cases: alternatively SPA-based assay
human αVβ8 = human αVβ8 (Homo sapiens, UniProt P06756+P26012); test: human αVβ8 HTRF binding assay
Experimental: (§1) All binding assays used the HTRF (homogeneous time resolved fluorescence) technology from Cisbio International, therefore all assays are described as HTRF binding assays. The assay results for the Examples are listed above together with the characterization data. The HTRF binding assays are established for the following integrins: human αVβ6, human αVβ1, human αVβ3, human αVβ5, and human αVβ8. All assays used the following assay buffer: 20 mM Tris, pH 7.4, 1 mM MgCl2, 1 mM MnCl2, 0.01% Tween 20, and 0.01% BSA. Alternatively, a SPA-based assay was used for evaluation of receptor binding.
(§2) The SPA-based assay was carried out according to the protocol and procedures similar to the ones described in the following reference with appropriate modifications to agents and ligands which are readily understood by one skilled in the art: Pachter J A, Zhang R, Mayer-Ezell R., “Scintillation proximity assay to measure binding of soluble fibronectin to antibody-captured αVβ1 integrin” Anal Biochem. 1995 Sep. 1; 230(1):101-7.

human αVβ5 = human αVβ5 (Homo sapiens, UniProt P06756+P18084); test: human αVβ5 HTRF binding assay
human αVβ5, sequence (P06756 31-992 limits assumed): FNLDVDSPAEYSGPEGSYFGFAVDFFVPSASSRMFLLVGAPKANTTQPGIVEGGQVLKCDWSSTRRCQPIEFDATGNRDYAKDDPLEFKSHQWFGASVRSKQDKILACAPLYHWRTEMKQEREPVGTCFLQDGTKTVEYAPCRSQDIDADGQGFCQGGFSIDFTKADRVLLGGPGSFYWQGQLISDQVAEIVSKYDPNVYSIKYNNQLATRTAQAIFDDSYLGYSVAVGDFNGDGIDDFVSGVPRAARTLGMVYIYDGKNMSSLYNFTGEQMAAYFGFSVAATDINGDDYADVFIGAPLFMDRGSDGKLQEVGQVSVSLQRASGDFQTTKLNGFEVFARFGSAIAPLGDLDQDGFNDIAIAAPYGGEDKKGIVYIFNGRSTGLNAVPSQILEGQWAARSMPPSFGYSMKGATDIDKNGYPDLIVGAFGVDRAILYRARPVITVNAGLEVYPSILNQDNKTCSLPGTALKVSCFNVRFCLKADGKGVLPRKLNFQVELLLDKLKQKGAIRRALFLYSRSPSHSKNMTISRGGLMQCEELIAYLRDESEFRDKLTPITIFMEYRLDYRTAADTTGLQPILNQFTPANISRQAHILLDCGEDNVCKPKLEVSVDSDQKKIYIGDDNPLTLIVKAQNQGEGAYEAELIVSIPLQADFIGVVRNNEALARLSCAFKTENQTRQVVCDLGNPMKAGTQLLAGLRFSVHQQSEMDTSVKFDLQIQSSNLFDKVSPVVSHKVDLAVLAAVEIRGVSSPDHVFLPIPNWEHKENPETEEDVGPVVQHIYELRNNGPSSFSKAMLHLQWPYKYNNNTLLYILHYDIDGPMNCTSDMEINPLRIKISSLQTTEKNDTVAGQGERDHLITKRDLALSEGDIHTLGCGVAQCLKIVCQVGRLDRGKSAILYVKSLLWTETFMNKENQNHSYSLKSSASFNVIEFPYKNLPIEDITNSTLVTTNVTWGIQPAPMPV
human αVβ5, sequence (P18084 24-719 limits assumed): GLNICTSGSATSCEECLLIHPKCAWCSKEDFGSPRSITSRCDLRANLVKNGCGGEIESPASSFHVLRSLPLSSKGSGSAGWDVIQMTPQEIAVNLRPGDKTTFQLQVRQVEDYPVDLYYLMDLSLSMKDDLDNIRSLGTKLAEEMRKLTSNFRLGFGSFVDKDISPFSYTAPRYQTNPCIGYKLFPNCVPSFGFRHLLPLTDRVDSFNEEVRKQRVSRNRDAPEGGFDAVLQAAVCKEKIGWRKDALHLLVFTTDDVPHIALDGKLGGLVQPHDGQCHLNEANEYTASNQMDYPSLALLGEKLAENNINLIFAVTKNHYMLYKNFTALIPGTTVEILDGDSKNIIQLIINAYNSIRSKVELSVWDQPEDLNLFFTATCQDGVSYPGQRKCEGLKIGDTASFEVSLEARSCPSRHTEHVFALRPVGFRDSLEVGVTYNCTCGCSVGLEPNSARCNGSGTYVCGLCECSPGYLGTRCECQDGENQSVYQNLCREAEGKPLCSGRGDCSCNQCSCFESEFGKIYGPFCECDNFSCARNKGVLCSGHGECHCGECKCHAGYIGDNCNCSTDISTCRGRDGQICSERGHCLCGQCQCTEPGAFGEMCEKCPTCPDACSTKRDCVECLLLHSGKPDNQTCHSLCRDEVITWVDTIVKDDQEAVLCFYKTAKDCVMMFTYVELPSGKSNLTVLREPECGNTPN
Experimental: as §1, §2

human αVβ1 = human αVβ1 (Homo sapiens, UniProt P05556+P06756); test: human αVβ1 HTRF binding assay
human αVβ1, sequence (P06756 31-992 limits assumed): as the sequence (P06756 31-992 limits assumed) above
human αVβ1, sequence (P05556 21-728 limits assumed): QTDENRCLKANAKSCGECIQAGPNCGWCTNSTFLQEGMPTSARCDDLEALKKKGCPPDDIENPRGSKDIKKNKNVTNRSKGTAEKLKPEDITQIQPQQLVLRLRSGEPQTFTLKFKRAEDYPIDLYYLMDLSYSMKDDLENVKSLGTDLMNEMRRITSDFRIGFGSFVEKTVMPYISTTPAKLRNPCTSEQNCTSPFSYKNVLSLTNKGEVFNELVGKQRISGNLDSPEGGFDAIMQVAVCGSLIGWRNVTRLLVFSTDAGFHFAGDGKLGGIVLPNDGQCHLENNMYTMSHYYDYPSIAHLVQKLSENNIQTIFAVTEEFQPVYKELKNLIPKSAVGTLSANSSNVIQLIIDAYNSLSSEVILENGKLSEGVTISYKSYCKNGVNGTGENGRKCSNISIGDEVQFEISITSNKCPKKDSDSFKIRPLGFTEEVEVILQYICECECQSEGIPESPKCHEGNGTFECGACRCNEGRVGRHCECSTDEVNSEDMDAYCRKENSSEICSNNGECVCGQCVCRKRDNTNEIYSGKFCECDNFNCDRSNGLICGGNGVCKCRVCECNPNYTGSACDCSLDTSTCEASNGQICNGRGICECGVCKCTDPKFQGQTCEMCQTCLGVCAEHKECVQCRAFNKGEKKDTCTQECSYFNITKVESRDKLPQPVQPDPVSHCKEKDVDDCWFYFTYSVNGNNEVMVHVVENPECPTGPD
Experimental: as §1, §2

human αVβ3 = human αVβ3 (Homo sapiens, UniProt P05106+P06756); test: human αVβ3 HTRF binding assay
human αVβ3, sequence (P06756 31-992 limits assumed): as the sequence (P06756 31-992 limits assumed) above
human αVβ3, sequence (P05106 27-718 limits assumed): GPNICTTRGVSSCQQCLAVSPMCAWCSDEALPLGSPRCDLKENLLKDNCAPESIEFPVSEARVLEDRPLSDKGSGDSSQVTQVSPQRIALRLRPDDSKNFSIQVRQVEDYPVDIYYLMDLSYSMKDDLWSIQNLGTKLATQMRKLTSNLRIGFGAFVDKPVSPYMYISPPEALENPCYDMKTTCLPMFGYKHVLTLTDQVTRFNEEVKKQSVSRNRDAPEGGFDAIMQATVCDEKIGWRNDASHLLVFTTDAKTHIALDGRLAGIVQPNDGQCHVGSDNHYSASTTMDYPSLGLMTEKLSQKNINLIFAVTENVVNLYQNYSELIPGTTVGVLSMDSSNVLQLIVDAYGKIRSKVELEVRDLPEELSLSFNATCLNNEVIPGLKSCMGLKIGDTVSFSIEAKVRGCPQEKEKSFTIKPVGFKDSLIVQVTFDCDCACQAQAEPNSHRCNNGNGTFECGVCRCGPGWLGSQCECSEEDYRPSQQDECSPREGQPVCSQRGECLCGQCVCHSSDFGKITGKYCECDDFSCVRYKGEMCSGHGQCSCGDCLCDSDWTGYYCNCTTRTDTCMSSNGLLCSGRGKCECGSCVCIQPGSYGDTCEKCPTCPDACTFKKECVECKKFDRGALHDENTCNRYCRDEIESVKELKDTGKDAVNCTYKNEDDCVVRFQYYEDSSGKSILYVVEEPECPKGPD
Experimental: as §1, §2

human αVβ6 = target: T1, human αVβ6 (Homo sapiens, UniProt P06756+P18564); test: human αVβ6 HTRF binding assay
T1 construct: purchased R & D systems 3817-AV
T1 sequence (P06756 31-992 limits assumed): as the sequence (P06756 31-992 limits assumed) above
T1 sequence (P18564 22-707 limits assumed): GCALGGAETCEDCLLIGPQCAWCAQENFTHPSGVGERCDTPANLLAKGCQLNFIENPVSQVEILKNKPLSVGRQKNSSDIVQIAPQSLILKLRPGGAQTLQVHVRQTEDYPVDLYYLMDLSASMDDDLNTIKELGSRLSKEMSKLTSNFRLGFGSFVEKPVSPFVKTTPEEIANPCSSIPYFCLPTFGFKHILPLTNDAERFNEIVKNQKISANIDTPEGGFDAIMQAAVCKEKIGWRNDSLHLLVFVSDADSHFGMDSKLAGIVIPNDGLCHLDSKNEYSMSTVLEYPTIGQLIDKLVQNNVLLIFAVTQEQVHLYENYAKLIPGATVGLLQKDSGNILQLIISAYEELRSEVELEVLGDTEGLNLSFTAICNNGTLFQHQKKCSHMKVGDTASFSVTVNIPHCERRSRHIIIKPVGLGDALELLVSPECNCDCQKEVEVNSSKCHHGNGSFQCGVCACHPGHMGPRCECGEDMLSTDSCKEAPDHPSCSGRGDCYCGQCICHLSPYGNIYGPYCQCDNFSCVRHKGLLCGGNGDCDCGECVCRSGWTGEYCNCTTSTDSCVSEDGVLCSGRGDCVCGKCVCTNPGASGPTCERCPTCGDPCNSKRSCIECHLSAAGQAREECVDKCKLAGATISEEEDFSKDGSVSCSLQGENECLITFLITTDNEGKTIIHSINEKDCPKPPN
Method in brief: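 Biotinylated recombinant human αVβ6 (1.25 nM final) incubated with FITC-fibronectin (5 nM final) 1 h at RT, then streptavidin-terbium (0.625 nM final) added and left overnight at RT in the dark before HTRF reading. Buffer: 20 mM Tris pH 7.4, 1 mM MgCl2, 1 mM MnCl2, 0.01% Tween 20, 0.01% BSA.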

human αVβ8, sequence (P06756 31-992 limits assumed): as the sequence (P06756 31-992 limits assumed) above
human αVβ8, sequence (P26012 43-684 limits assumed): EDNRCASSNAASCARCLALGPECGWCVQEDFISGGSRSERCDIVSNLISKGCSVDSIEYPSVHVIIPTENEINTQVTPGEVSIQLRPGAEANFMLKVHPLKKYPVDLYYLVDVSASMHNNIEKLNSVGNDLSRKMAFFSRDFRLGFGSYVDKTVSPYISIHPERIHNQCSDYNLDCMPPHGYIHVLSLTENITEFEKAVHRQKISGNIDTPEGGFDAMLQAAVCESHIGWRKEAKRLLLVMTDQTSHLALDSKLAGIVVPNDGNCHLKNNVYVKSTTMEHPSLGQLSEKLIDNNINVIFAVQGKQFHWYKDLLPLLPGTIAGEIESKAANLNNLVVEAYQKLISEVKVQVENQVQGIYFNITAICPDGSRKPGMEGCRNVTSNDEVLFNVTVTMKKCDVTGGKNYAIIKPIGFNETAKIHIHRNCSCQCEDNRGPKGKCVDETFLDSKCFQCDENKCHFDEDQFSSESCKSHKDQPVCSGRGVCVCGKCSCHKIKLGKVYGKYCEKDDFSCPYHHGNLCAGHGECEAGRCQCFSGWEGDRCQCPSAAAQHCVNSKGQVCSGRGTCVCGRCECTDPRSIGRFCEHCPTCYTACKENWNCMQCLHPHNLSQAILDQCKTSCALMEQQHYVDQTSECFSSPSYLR

SMILES	IC50 (human αVβ8) [nM]	IC50 (human αVβ5) [nM]	IC50 (human αVβ1) [nM]	IC50 (human αVβ3) [nM]	IC50 (human αVβ6) [nM]
O=C(O)C[C@@H](c1ccc2c(c1)CCO2)N1CC(CCCCc2ccc3c(n2)NCCC3)C1=O (stereo partly drawn) [Example 110]	48	34	210	7.1	1.4
COc1ncc([C@H](CC(=O)O)N2CC(CCCCc3ccc4c(n3)NCCC4)C2=O)cn1 (stereo partly drawn) [Example 69]	2000	0.32	1230	1.79	3.27
O=C(O)C[C@H](NC(=O)N1CC(CCc2ccc3c(n2)NCCC3)C1)c1cnc2ccccc2c1 [Example 96]	120	1.3	247	2.3	1.9
Cc1cc(C)c(S(=O)(=O)N[C@@H](CNC(=O)C2(F)CN(CCc3ccc4c(n3)NCCC4)C2)C(=O)O)c(C)c1 [Example 13, (S)-3-(3-Fluoro-1-(2-(5,6,7,8-tetrahydro-1,8-naphthyridin-2-yl)ethyl)azetidine-3-carboxamido)-2-(2,4,6-trimethylphenylsulfonamido)propanoic acid]	30	2	84	4.1	0.6
Cc1cc(C)c(S(=O)(=O)N[C@@H](CNC(=O)[C@H]2C[C@H](CCc3ccc4c(n3)NCCC4)C2)C(=O)O)c(C)c1 [Example 52]	15	0.2	3.1	2.08	0.37
O=C(O)C[C@H](NC(=O)C1(F)CN(CCc2ccc3c(n2)NCCC3)C1)c1cnc2ccccc2c1 [Example 80]	49	2.1	900	2.3	0.62
COc1ncc([C@H](CC(=O)O)NC(=O)[C@H]2C[C@H](CCc3ccc4c(n3)NCCC4)C2)cn1 [Example 82]	470	15	200	4.2	0.78

The next lines start with the values.

IC50 (human αVβ8) [nM]	IC50 (human αVβ5) [nM]	IC50 (human αVβ1) [nM]	IC50 (human αVβ3) [nM]	IC50 (human αVβ6) [nM]	SMILES
430	7.7	510	6.3	2.8	COc1ccc([C@H](CC(=O)O)NC(=O)N2CC(CCc3ccc4c(n3)NCCC4)C2)cn1 [Example 6, (S)-3-(6-Methoxypyridin-3-yl)-3-(3-(2-(5,6,7,8-tetrahydro-1,8-naphthyridin-2-yl)ethyl)azetidine-1-carboxamido)propanoic acid]
89	0.3	28	3.07	0.5	O=C(N[C@@H](CNC(=O)C1(F)CN(CCc2ccc3c(n2)NCCC3)C1)C(=O)O)OCc1ccccc1 [Example 45]
270	0.47	87.5	2.7	0.64	COc1ccc([C@H](CC(=O)O)NC(=O)[C@H]2C[C@H](CCc3ccc4c(n3)NCCC4)C2)cn1 [Example 59]
38	0.42	37	4.2	0.97	O=C(N[C@@H](CNC(=O)[C@H]1C[C@H](CCc2ccc3c(n2)NCCC3)C1)C(=O)O)OCc1ccccc1 [Example 78]
55	0.58	67	2	0.57	COc1ccc([C@H](CC(=O)O)NC(=O)C2CC(CCc3ccc4c(n3)NCCC4)C2)cn1 (stereo partly drawn) [Example 56]
1400	150	4000	3.2	2	COc1ncc([C@H](CC(=O)O)NC(=O)[C@H]2C[C@@H](CCc3ccc4c(n3)NCCC4)C2)cn1 [Example 83]
270	5.46	220	2.5	2	O=C(O)C[C@@H](c1cnc2ccccc2c1)N1CC(CCCCc2ccc3c(n2)NCCC3)C1=O (stereo partly drawn) [Example 106]
940	8.8	2200	3.8	1.1	Cc1ncc([C@H](CC(=O)O)NC(=O)[C@H]2C[C@@H](CCc3ccc4c(n3)NCCC4)C2)cn1 [Example 87]
